Reference: patent US10647675B2 (priority 2015, dated 2020)
≈ marks a conversion by molar mass, not a printed value.

Experiments:
[1] = tested on: Trichophyton rubrum KD-1130; test: Antifungal activity evaluation test: minimum inhibitory concentration (MIC), broth dilution by reference to CLSI M38-A2; format: cell-based; conditions: KD1130, read-out: MIC (T. rubrum)
Summary of the method: (§1)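 MIC read visually as lowest concentration inhibiting growth by at least 80% relative to control after 4 days at 35° C. Trichophyton strains inoculated at 2×10^3 cells/mL final in MOPS-buffered RPMI 1640 (pH 7.0); compounds as 2-fold DMSO series, CLSI M38-A2 basis.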

[2] = tested on: Trichophyton mentagrophytes SM-110; test: as above; format: cell-based; conditions: SM110, read-out: MIC (T. menta.)
Summary of the method: as §1

| MIC [1] [µg/mL] | MIC [2] [µg/mL] | Structure (SMILES) |
| --- | --- | --- |
| ≤ 0.1 | ≤ 0.1 | COc1cc(-c2cncnc2Oc2ccc(C(C)(F)F)nc2)c(F)cc1F [I-334, 4-{[6-(1,1-difluoroethyl)pyridin-3-yl]oxy}-5-(2,4-difluoro-5-methoxyphenyl)pyrimidine] |
| 0.2 to 0.78 (≈ 0.54 to 2.11 µM) | 0.2 to 0.78 (≈ 0.54 to 2.11 µM) | C#CCOc1ccccc1-c1cccnc1Oc1ccc(C(F)(F)F)nc1 [I-56, 3-[2-(2-propyn-1-yloxy)phenyl]-2-{[6-(trifluoromethyl)pyridin-3-yl]oxy}pryidine] |
| ≤ 0.1 | ≤ 0.1 | CCOC(=O)c1ccc(Oc2ncccc2-c2cnccc2C)cc1 [I-419] |
| 1.56 to 6.25 (≈ 4.35 to 17.4 µM) | 0.2 to 0.78 (≈ 0.558 to 2.18 µM) | COc1ncccc1-c1cccnc1Oc1ccc(C(F)(F)CO)cc1 [I-434] |
| ≤ 0.1 | ≤ 0.1 | CCN(C)c1ccc(Oc2ncccc2-c2ccc(F)cc2OC)cn1 [I-367, N-ethyl-5-{[3-(4-fluoro-2-methoxyphenyl)pyridin-2-yl]oxy}-N-methylpyridin-2-amine] |
| ≤ 0.1 | ≤ 0.1 | COc1ccccc1-c1cncnc1Oc1ccc(C(F)F)c(C)c1 [I-323, 4-[4-(difluoromethyl)-3-methylphenoxy]-5-(2-methoxyphenyl)pyrimidine] |
| ≤ 0.1 | ≤ 0.1 | COc1ncccc1-c1cccnc1Oc1ccc(C(F)F)c(C)c1 [I-456] |
| ≤ 0.1 | ≤ 0.1 | COc1ccc(F)c(-c2cccnc2Oc2ccc(C(F)F)nc2)c1 [I-74, 2-{[6-(difluoromethyl)pyridin-3-yl]oxy}-3-(2-fluoro-5-methoxyphenyl)pyridine] |
| ≤ 0.1 | ≤ 0.1 | COc1cc(F)c(F)cc1-c1cncnc1Oc1ccc(C(C)(F)F)nc1 [I-336, 4-{[6-(1,1-difluoroethyl)pyridin-3-yl]oxy}-5-(4,5-difluoro-2-methoxyphenyl)pyrimidine] |
| ≤ 0.1 | ≤ 0.1 | CCc1ccc(Oc2ncccc2-c2cncc(C)c2OC)cc1 [I-286, 2-(4-ethylphenoxy)-4′-methoxy-5′-methyl-3,3′-bipyridine] |
| ≤ 0.1 | ≤ 0.1 | Cc1ccncc1-c1cccnc1Oc1ccc(-c2ccccn2)cc1 [I-431] |
| ≤ 0.1 | ≤ 0.1 | COc1c(F)cncc1-c1cccnc1Oc1ccc(C(F)F)cc1 [I-356, 2-[4-(difluoromethyl)phenoxy]-5′-fluoro-4′-methoxy-3,3′-bipyridine] |
| ≤ 0.1 | ≤ 0.1 | CCN(C)c1ncc(Oc2ncccc2-c2ccc(F)cc2OC)cn1 [I-184, N-ethyl-5-{[3-(4-fluoro-2-methoxyphenyl)pyridin-2-yl]oxy}-N-methylpyrimidin-2-amine] |
| ≤ 0.1 | ≤ 0.1 | CCOC(=O)c1ccc(Oc2ncccc2-c2cnccc2CC)cc1 [I-416] |
| ≤ 0.1 | ≤ 0.1 | COc1cc(-c2cccnc2Oc2ccc(C(C)(F)F)nc2)c(F)cc1F [I-85] |
| 0.2 to 0.78 (≈ 0.519 to 2.02 µM) | ≤ 0.1 | COc1ccccc1-c1cccnc1Oc1ccc(C(F)(F)CN(C)C)nc1 [I-147, 2,2-difluoro-2-(5-{[3-(2-methoxyphenyl)pyridin-2-yl]oxy}-2-yl)-N,N-dimethylethanamine] |
| ≤ 0.1 | ≤ 0.1 | COc1c(Cl)cncc1-c1cncnc1Oc1ccc(C(F)(F)F)cc1 [I-331, 5-(5-chloro-4-methoxypyridin-3-yl)-4-[4-(trifluoromethyl)phenoxy]pyrimidine] |
| ≤ 0.1 | ≤ 0.1 | COc1ccccc1-c1cccnc1Oc1ccc(C(F)(F)Cn2cccn2)nc1 [I-350, 2-({6-[1,1-difluoro-2-(1H-pyrazol-1-yl)ethyl]pyridin-3-yl}oxy)-3-(2-methoxyphenyl)pyridine] |
| ≤ 0.1 | ≤ 0.1 | Fc1cccc(F)c1-c1cccnc1Oc1ccc(C(F)(F)F)nc1 [I-6, 3-(2,6-difluorophenyl)-2-{[6-(trifluoromethyl)pyridin-3-yl]oxy}pyridine] |
| ≤ 0.1 | ≤ 0.1 | CCCN(C)c1ncc(Oc2ncccc2-c2cccnc2OC)cn1 [I-183] |
| ≤ 0.1 | ≤ 0.1 | Cc1cc(Oc2ncncc2-c2cccc3c2OCC3)cnc1C(F)F [I-324] |
